Source: ChEMBL document CHEMBL3880416, “Inhibitors of AKT Activity” (2011)

Each compound was assayed against RAC-alpha serine/threonine-protein kinase (Homo sapiens, UniProt P31749) (assay: Inhibition of full length human AKT1 expressed in Sf9 cells assessed as reduction in substrate phosphorylation using biotin-ahx-ARKRERAYSFGHHA-amide substrate and [gamma-33P]ATP incubated for 40 mins by top count microplate scintillation counting method).
Chain of RAC-alpha serine/threonine-protein kinase (P31749 whole entry): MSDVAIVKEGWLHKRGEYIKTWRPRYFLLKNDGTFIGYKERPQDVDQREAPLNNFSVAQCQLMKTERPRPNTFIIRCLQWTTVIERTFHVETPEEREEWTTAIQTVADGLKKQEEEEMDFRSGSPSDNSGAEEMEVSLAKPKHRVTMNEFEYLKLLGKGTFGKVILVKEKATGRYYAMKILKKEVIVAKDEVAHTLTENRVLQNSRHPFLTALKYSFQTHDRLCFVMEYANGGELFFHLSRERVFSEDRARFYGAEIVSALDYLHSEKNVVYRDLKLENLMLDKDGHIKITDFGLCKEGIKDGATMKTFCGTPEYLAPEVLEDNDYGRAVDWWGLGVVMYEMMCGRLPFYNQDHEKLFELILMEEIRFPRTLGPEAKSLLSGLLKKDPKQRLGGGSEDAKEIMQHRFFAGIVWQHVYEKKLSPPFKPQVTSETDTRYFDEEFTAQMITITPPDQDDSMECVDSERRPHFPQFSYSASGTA
For `Cn1ncc(Cl)c1-c1cc(C(=O)N[C@H](CN)Cc2ccccc2C(F)(F)F)sc1Cl`, the IC50 was no more than 2.51 nM. In the case of `Cc1cnn(C)c1-c1cc(C(=O)N[C@H](CN)Cc2cccc(F)c2)oc1Cl`, the IC50 is reported as no more than 2.51 nM. `Cn1nccc1-c1cc(C(=O)N[C@H](CN)Cc2cccc(F)c2)sc1Cl` gave an IC50 of no more than 2.51 nM. `Cn1ncc(Br)c1-c1cc(C(=O)N[C@H](CN)Cc2cccc(F)c2)sc1Cl` showed an IC50 of no more than 2.51 nM. `Cc1cnn(C)c1-c1cc(C(=O)N[C@H](CN)Cc2cccc(F)c2)sc1Cl` gave an IC50 of no more than 2.51 nM. With `CCn1ncc(Cl)c1-c1cc(C(=O)N[C@H](CN)Cc2ccc(F)c(F)c2)sc1Cl` the IC50 was no more than 2.51 nM. For `Cn1ncc(Br)c1-c1cc(C(=O)N[C@H](CN)Cc2ccccc2C(F)(F)F)sc1Cl`, the IC50 was no more than 2.51 nM. `Cn1nccc1-c1cc(C(=O)N[C@H](CN)Cc2ccc(F)c(F)c2)oc1Cl` was tested, and the IC50 was no more than 2.51 nM. Work on `COc1sc(C(=O)N[C@H](CN)Cc2cccc(F)c2)cc1-c1c(Cl)cnn1C` yielded an IC50 of no more than 2.51 nM. Compound `Cn1ncc(Cl)c1-c1cc(C(=O)N[C@H](CN)Cc2ccccc2C(F)(F)F)oc1Cl` has an IC50 of no more than 2.51 nM. With `Cn1ncc(Br)c1-c1cc(C(=O)N[C@H](CN)Cc2cccc(C(F)(F)F)c2)sc1Cl` the IC50 was no more than 2.51 nM. Compound `Cn1ncc(Cl)c1-c1cc(C(=O)N[C@H](CN)Cc2ccc(F)c(F)c2)sc1Cl` has an IC50 of 1.58 to 2.51 nM. `CCn1ncc(Cl)c1-c1cc(C(=O)N[C@H](CN)Cc2ccc(F)c(F)c2)oc1Cl` showed an IC50 of no more than 2.51 nM. `Cc1cnn(C)c1-c1cc(C(=O)N[C@H](CN)Cc2ccccc2C(F)(F)F)sc1Cl` gave an IC50 of no more than 2.51 nM. In the case of `CCc1sc(C(=O)N[C@H](CN)Cc2cccc(F)c2)cc1-c1c(Cl)cnn1C`, the IC50 is reported as no more than 2.51 nM. `CCn1ncc(Cl)c1-c1cc(C(=O)N[C@H](CN)Cc2ccc(F)cc2)sc1Cl` showed an IC50 of no more than 2.51 nM. `Cn1ncc(Br)c1-c1cc(C(=O)N[C@H](CN)Cc2ccc(F)cc2)sc1Cl` showed an IC50 of no more than 2.51 nM.

Each compound was assayed against RAC-gamma serine/threonine-protein kinase (Homo sapiens, UniProt Q9Y243) (assay: Inhibition of full length human AKT3 expressed in Sf9 cells assessed as reduction in substrate phosphorylation using biotin-ahx-ARKRERAYSFGHHA-amide substrate and [gamma-33P]ATP incubated for 40 mins by top count microplate scintillation counting method).
Chain of RAC-gamma serine/threonine-protein kinase (Q9Y243 whole entry): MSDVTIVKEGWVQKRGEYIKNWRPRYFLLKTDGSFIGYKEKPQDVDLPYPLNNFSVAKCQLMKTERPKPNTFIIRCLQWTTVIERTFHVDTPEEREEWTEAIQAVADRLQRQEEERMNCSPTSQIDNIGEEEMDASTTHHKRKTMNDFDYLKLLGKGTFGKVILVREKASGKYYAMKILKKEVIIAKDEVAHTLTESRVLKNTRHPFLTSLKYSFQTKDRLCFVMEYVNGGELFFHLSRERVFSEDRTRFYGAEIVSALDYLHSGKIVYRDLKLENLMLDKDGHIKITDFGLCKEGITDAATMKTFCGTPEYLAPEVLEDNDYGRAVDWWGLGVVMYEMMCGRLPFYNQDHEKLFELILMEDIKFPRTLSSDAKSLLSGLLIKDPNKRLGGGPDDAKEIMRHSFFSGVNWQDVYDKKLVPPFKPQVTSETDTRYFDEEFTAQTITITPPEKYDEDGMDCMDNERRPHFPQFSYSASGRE
For `Cn1ncc(Cl)c1-c1cc(C(=O)N[C@H](CN)Cc2ccc(F)c(F)c2)sc1Cl`, the IC50 was 3.16 to 25.1 nM.
